In patent US20160318891A1, “TONABERSAT PRODRUGS” (PROXIMAGEN LIMITED, priority 2013, published 2016):
Converted amounts (≈) assume the structure as drawn. Read-outs that look alike come from different tables or passages of the source. Blank lines part the entries; values can stand above or below the compound they belong to.

How the values were obtained:
[1] = Solubility in aqueous solution; type: physicochemical
From the text: In an embodiment prodrugs of the present invention are suitable for oral administration. The skilled person understands that the pH of the gastrointestinal tract changes along its length. For example, the stomach has a pH of around pH 1.5 and the GI tract after the stomach has a pH of around 5 to 7.5. For more detail see, for example, Measurement of gastrointestinal pH profiles in normal ambulant human subjects, Gut. 1988 August; 29(8): 1035-1041. Improved solubility is expected to result in improved absorption, and therefore improved oral bioavailability. Thus improved solubility at any pH value between around pH 1.5 to 8 is expected to improve oral bioavailability. Compounds of the invention were assessed for solubility in aqueous solutions having a pH of from 2 to 10. In an embodiment prodrugs of the invention have a solubility of >0.5 mg/mL in an aqueous solution having a pH of from 2 to 8. In an embodiment prodrugs have a solubility of >5.0 mg/mL, or >10.0 mg/mL, >100.0 mg/mL, or >200.0 mg/mL. In an embodiment the prodrugs have the aforementioned aqueous solubility at a pH within the range of from 4 to 8, or from 6 to 8.
In an embodiment prodrugs of the invention are administered intravenously. High prodrug solubility is advantageous in order to reduce the volume of solution administered to the patient, and to reduce the risk of damage to the circulatory system. Solubility of >10 mg/mL is preferred. Yet more preferred is solubility of >30 mg/mL or >100.0 mg/mL. Yet more preferred is solubility of >200.0 mg/mL. The solubility is measured in an aqueous solution having a pH of from 2 to 10, which pH range is advantageous for intravenous prodrug delivery. See, for example, A guide on intravenous drug compatibilities based on their pH, Nasser S C et al./Pharmacie Globale (IJCP) 2010, 5 (01)). In an embodiment the prodrugs of the claimed invention have solubility of >10 mg/mL in an aqueous solution having a pH of from 2 to 10.

hERG K+ channel = molecular target: T1, hERG K+ channel (Homo sapiens, UniProt Q12809); assay: hERG assay, IonWorks patch clamp electrophysiology; type: cell-based; conditions: human, pH 7.3; 11 uM; Chinese Hamster Lung cell line stably expressing hERG
T1 construct: a Chinese Hamster Lung cell line stably expressing the full length hERG channel; expressed in transfected cells; host or cells: Chinese Hamster Lung cell line
T1 sequence (Q12809 whole entry): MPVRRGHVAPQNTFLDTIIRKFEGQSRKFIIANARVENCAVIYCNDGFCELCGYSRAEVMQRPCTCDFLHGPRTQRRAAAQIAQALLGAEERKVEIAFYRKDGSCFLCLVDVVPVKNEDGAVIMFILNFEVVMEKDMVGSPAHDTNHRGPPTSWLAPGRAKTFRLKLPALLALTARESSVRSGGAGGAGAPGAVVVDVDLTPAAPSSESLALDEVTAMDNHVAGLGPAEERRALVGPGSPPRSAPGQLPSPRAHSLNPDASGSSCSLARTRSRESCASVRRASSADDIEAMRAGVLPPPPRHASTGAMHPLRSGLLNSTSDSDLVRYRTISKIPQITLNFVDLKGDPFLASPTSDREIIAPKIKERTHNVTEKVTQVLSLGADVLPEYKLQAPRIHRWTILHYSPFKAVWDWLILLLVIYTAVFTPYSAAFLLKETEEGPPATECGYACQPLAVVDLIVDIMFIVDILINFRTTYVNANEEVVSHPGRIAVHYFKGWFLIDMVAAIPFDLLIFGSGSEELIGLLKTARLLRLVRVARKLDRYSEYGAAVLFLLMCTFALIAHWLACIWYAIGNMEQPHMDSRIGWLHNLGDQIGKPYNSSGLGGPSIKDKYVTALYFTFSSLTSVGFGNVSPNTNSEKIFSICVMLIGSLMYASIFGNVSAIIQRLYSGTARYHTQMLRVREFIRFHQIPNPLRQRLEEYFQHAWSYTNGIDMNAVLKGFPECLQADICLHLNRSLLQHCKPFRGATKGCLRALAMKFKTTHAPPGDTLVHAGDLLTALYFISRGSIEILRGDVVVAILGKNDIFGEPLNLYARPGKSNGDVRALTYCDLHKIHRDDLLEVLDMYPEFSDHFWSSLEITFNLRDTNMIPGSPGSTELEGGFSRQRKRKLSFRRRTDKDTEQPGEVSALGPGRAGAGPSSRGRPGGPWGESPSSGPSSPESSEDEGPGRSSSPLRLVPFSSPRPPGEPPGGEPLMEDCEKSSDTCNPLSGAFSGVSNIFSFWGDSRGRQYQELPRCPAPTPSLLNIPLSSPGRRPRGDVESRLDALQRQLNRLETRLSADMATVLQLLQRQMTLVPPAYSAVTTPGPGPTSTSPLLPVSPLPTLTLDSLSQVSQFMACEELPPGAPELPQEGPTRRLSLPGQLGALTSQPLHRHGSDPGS
Experimental: (§1) Compounds of the invention were tested for inhibition of the human ether a go-go related gene (hERG) K^+ channel using IonWorks patch clamp electrophysiology. 8 Point concentration-response curves were generated on two occasions using 3-fold serial dilutions from the maximum assay concentration (33 uM). Electrophysiological recordings were made from a Chinese Hamster Lung cell line stably expressing the full length hERG channel. Single cell ion currents were measured in the perforated patch clamp configuration (100 ug/mL amphoterocin) at room temperature using an IonWorks Quattro instrument. The internal solution contained 140 mM KCl, 1 mM MgCl2, 1 mM EGTA and 20 mM HEPES and was buffered to pH 7.3. The external solution contained 138 mM NaCl, 2.7 mM KCl, 0.9 mM CaCl2, 0.5 mM MgCl2, 8 mM Na2HPO4 and 1.5 mM KH2PO4, and was buffered to pH 7.3. Cells were clamped at a holding potential of […] for 30 s and then stepped to +40 mV for is. This was followed by a hyperpolarising step of 1 s to […] to evoke the hERG tail current. This sequence was repeated 5 times at a frequency of 0.25 Hz. Currents were measured from the tail step at the 5th pulse, and referenced to the holding current. Compounds were incubated for 6-7 min prior to a second measurement of the hERG signal using an identical pulse train. […] A control compound (quinidine) was used.

[2] = cited from earlier work
[3] = over a range of pH values including pH of 7.4; cited from earlier work
[4] = rat brain; cited from earlier work
[5] = human brain; cited from earlier work
high K+ evoked CSD [6] = conditions: cats; cited from earlier work
high K+ evoked CSD [7] = conditions: rats; cited from earlier work
[8] = molecular target: T2, human ether a go-go related gene (hERG) K+ channel (Homo sapiens, UniProt Q12809); assay: hERG assay, IonWorks patch clamp electrophysiology; type: cell-based; conditions: Chinese Hamster Lung cell line stably expressing hERG; maximum assay concentration 33 uM
T2 construct: a Chinese Hamster Lung cell line stably expressing the full length hERG channel; expressed in transfected cells; host or cells: Chinese Hamster Lung cell line
T2 sequence (Q12809 whole entry): as above
Experimental: as §1

SMILES: CC(=O)c1ccc2c(c1)[C@H](NC(=O)c1ccc(F)c(Cl)c1)[C@H](OC(=O)[C@@H](N)CCCNC(=N)N)C(C)(C)O2.Cl.Cl [Example 12, (3S,4S)-6-Acetyl-4-[(3-chloro-4-fluorobenzene)amido]-2,2-dimethyl-3,4-dihydro-2H-1-benzopyran-3-yl (2S)-2-amino-5-carbamimidamidopentanoate dihydrochloride]
solubility ([1]; pH 4.4, aqueous buffer): > 10000 µg/mL
inhibition at 11 µM (hERG K+ channel): 9%

SMILES: CC(=O)c1ccc2c(c1)[C@H](NC(=O)c1ccc(F)c(Cl)c1)[C@H](OC(=O)[C@@H](N)CCC(N)=O)C(C)(C)O2.Cl [Example 11, (3S,4S)-6-Acetyl-4-[(3-chloro-4-fluorobenzene)amido]-2,2-dimethyl-3,4-dihydro-2H-1-benzopyran-3-yl (2S)-2-amino-4-carbamoylbutanoate hydrochloride]
solubility ([1]; pH 4.6, aqueous buffer): > 2000 µg/mL

SMILES: CC(=O)c1ccc2c(c1)[C@H](NC(=O)c1ccc(F)c(Cl)c1)[C@H](O)C(C)(C)O2 [Tonabersat]
log P [2]: 3.32
aqueous solubility [3]: 25 µg/mL (≈ 63.8 µM)
binding to unique stereo-selective site [4]: binds selectively and with high affinity
binding to unique stereo-selective site [5]: binds selectively and with high affinity
inhibition of high K+ evoked CSD (high K+ evoked CSD [6]): inhibits high K+ evoked CSD
inhibition of high K+ evoked CSD (high K+ evoked CSD [7]): inhibits high K+ evoked CSD

SMILES: CC(=O)c1ccc2c(c1)[C@H](NC(=O)c1ccc(F)c(Cl)c1)[C@H](OCOC[C@@H](O)CO)C(C)(C)O2 [Example 16, N-[(3S,4S)-6-Acetyl-3-{[(2S)-2,3-dihydroxypropoxy]methoxy}-2,2-dimethyl-3,4-dihydro-2H-1-benzopyran-4-yl]-3-chloro-4-fluorobenzamide]
solubility ([1]; aqueous buffer, pH 3.0): < 1000 µg/mL

SMILES: CC(=O)c1ccc2c(c1)[C@H](NC(=O)c1ccc(F)c(Cl)c1)[C@H](OC(=O)[C@@H](N)CCCCN)C(C)(C)O2.Cl.Cl [Example 9, (3S,4S)-6-Acetyl-4-[(3-chloro-4-fluorobenzene)amido]-2,2-dimethyl-3,4-dihydro-2H-1-benzopyran-3-yl (2S)-2,6-diaminohexanoate dihydrochloride]
solubility ([1]; pH 4.4, aqueous buffer): > 10000 µg/mL
inhibition at 11 µM (hERG K+ channel): 0%

SMILES: CC(=O)c1ccc2c(c1)[C@H](NC(=O)c1ccc(F)c(Cl)c1)[C@H](OC(=O)[C@@H](N)CCC(=O)O)C(C)(C)O2 [Example 14, (4S)-5-{[(3S,4S)-6-Acetyl-4-[(3-chloro-4-fluorobenzene)amido]-2,2-dimethyl-3,4-dihydro-2H-1-benzopyran-3-yl]oxy}-4-amino-5-oxopentanoic acid; trifluoroacetic acid]
solubility ([1]; pH 4.6, aqueous buffer): > 2000 µg/mL
inhibition at 11 µM (hERG K+ channel): 8%

SMILES: CC(=O)c1ccc2c(c1)[C@H](NC(=O)c1ccc(F)c(Cl)c1)[C@H](OC(=O)[C@@H]1CCCN1)C(C)(C)O2.Cl [Example 5, (3S,4S)-6-Acetyl-4-[(3-chloro-4-fluorobenzene)amido]-2,2-dimethyl-3,4-dihydro-2H-1-benzopyran-3-yl (2S)-pyrrolidine-2-carboxylate hydrochloride]
solubility ([1]; pH 4.4, aqueous buffer): > 10000 µg/mL
IC50 [8]: 1.4 µM

SMILES: CC(=O)c1ccc2c(c1)[C@H](NC(=O)c1ccc(F)c(Cl)c1)[C@H](OC(=O)[C@@H](N)CC(=O)O)C(C)(C)O2 [Example 13, (3S)-4-{[(3S,4S)-6-Acetyl-4-[(3-chloro-4-fluorobenzene)amido]-2,2-dimethyl-3,4-dihydro-2H-1-benzopyran-3-yl]oxy}-3-amino-4-oxobutanoic acid; trifluoroacetic acid]
solubility ([1]; pH 6.5, aqueous buffer): > 2000 µg/mL
inhibition at 11 µM (hERG K+ channel): 19%

Second part, led by results:

solubility ([1]; pH 5.1, aqueous buffer): > 10000 µg/mL
SMILES: CN[C@@H](C)C(=O)O[C@H]1[C@@H](NC(=O)c2ccc(F)c(Cl)c2)c2cc(C(C)=O)ccc2OC1(C)C.Cl [Example 8, (3S,4S)-6-Acetyl-4-[(3-chloro-4-fluorobenzene)amido]-2,2-dimethyl-3,4-dihydro-2H-1-benzopyran-3-yl (2S)-2-(methylamino)propanoate hydrochloride]

solubility ([1]; pH 4.4, aqueous buffer): ~5000 µg/mL
SMILES: CC(=O)c1ccc2c(c1)[C@H](NC(=O)c1ccc(F)c(Cl)c1)[C@H](OC(=O)[C@@H](N)C(C)C)C(C)(C)O2.Cl [Example 2, (3S,4S)-6-Acetyl-4-[(3-chloro-4-fluorobenzene)amido]-2,2-dimethyl-3,4-dihydro-2H-1-benzopyran-3-yl (2S)-2-amino-3-methylbutanoate hydrochloride]
inhibition at 11 µM (hERG K+ channel): 38%

solubility ([1]; aqueous buffer, pH 4.0): > 10000 µg/mL
SMILES: CC(=O)c1ccc2c(c1)[C@H](NC(=O)c1ccc(F)c(Cl)c1)[C@H](OC(=O)[C@H](C)N)C(C)(C)O2.Cl [Example 1, (3S,4S)-6-Acetyl-4-[(3-chloro-4-fluorobenzene)amido]-2,2-dimethyl-3,4-dihydro-2H-1-benzopyran-3-yl (2S)-2-aminopropanoate hydrochloride]
IC50 [8]: 6 µM

solubility ([1]; pH 4.7, aqueous buffer): > 10000 µg/mL
SMILES: CC(=O)c1ccc2c(c1)[C@H](NC(=O)c1ccc(F)c(Cl)c1)[C@H](OC(=O)C(C)(C)N)C(C)(C)O2.Cl [Example 6, (3S,4S)-6-Acetyl-4-[(3-chloro-4-fluorobenzene)amido]-2,2-dimethyl-3,4-dihydro-2H-1-benzopyran-3-yl 2-amino-2-methylpropanoate hydrochloride]

solubility ([1]; pH 4.2, aqueous buffer): > 10000 µg/mL
SMILES: CC(=O)c1ccc2c(c1)[C@H](NC(=O)c1ccc(F)c(Cl)c1)[C@H](OC(=O)[C@H](N)CC(C)C)C(C)(C)O2.Cl [Example 4, (3S,4S)-6-Acetyl-4-[(3-chloro-4-fluorobenzene)amido]-2,2-dimethyl-3,4-dihydro-2H-1-benzopyran-3-yl (2R)-2-amino-4-methylpentanoate hydrochloride]

solubility ([1]; pH 4.4, aqueous buffer): < 1000 µg/mL
SMILES: CC(=O)c1ccc2c(c1)[C@H](NC(=O)c1ccc(F)c(Cl)c1)[C@H](OC(=O)[C@@H](N)CC(N)=O)C(C)(C)O2.Cl [Example 10, (3S,4S)-6-Acetyl-4-[(3-chloro-4-fluorobenzene)amido]-2,2-dimethyl-3,4-dihydro-2H-1-benzopyran-3-yl (2S)-2-amino-3-carbamoylpropanoate hydrochloride]
inhibition at 11 µM (hERG K+ channel): 18%

solubility ([1]; pH 4.8, aqueous buffer): < 1000 µg/mL
SMILES: CC(=O)c1ccc2c(c1)[C@H](NC(=O)c1ccc(F)c(Cl)c1)[C@H](OC(=O)[C@H](N)C(C)C)C(C)(C)O2.Cl [Example 3, (3S,4S)-6-Acetyl-4-[(3-chloro-4-fluorobenzene)amido]-2,2-dimethyl-3,4-dihydro-2H-1-benzopyran-3-yl (2R)-2-amino-3-methylbutanoate hydrochloride]
IC50 [8]: 4.3 µM
